Data as given in PMC12578388, “Allosteric modulation of the solute carrier transporter SLC39A8 potentiates manganese and cadmium uptake” (The Journal of Clinical Investigation, 2025).

Tests used:
Assay type in all cases: cell-based
[1] = target: T1, mouse SLC39A8 (Mus musculus, UniProt Q91W10); assay: Cd uptake in cells expressing mouse SLC39A8
T1 sequence (Q91W10 20-462): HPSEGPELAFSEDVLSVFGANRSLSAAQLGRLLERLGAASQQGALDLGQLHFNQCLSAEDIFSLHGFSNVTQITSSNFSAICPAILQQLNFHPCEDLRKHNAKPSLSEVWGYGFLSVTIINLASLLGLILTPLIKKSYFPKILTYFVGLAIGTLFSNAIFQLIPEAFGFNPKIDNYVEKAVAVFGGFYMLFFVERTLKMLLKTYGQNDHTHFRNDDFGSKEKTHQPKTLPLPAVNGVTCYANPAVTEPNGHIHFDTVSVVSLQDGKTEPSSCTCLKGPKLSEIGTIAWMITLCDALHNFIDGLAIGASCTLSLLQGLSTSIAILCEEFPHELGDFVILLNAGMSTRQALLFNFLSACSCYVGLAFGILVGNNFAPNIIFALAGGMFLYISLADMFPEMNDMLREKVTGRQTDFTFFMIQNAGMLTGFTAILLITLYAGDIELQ

[2] = target: T2, pig SLC39A8 (Sus scrofa, UniProt A0A480EKF5, F327C); assay: Cd uptake in cells expressing mutant pig SLC39A8 (gain of EFV sensitivity)
T2 sequence (A0A480EKF5 20-461 F327C): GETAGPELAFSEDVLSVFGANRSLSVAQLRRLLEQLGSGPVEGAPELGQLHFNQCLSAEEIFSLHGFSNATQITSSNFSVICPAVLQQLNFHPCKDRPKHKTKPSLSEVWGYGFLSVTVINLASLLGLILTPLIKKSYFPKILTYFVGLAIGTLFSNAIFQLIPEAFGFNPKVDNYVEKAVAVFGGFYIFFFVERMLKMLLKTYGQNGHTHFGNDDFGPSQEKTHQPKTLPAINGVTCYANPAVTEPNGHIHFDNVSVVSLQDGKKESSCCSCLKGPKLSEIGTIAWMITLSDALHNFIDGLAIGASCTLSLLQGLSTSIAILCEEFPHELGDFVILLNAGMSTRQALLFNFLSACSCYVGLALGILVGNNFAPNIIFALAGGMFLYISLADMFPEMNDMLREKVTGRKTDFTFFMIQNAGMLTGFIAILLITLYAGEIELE

[3] = target: T3, rat SLC39A8 (Rattus norvegicus, UniProt Q5FVQ0, Y328C); assay: Cd uptake in cells expressing mutant rat SLC39A8 (gain of EFV sensitivity)
T3 sequence (Q5FVQ0 20-462 Y328C): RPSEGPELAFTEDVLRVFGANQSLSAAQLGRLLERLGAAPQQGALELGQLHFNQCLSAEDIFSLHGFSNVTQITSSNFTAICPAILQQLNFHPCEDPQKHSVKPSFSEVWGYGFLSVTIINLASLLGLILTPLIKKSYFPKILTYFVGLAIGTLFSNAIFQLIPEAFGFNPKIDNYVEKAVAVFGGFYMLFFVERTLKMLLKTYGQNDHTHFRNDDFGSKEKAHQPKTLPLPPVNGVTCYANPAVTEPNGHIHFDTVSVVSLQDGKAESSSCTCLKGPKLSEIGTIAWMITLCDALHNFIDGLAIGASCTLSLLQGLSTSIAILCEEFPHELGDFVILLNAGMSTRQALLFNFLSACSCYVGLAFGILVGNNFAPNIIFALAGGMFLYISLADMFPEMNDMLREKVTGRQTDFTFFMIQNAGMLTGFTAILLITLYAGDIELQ

## O=C1Nc2ccc(Cl)cc2[C@@](C#CC2CC2)(C(F)(F)F)O1 [compound 1, efavirenz]
[1]
  Cd uptake in cells expressing mouse SLC39A8: EFV was able to enhance Cd uptake in cells expressing mouse SLC39A8 but not chicken, frog, or zebrafish
[2]
  Cd uptake in cells expressing mutant pig SLC39A8 (gain of EFV sensitivity): EFV sensitivity could be created by replacing these residues with cysteine in pig F327C and rat Y328C, respectively
[3]
  Cd uptake in cells expressing mutant rat SLC39A8 (gain of EFV sensitivity): EFV sensitivity could be created by replacing these residues with cysteine in pig F327C and rat Y328C, respectively
